Test results published in publication PMC4741798, “Imaging of carbonic anhydrase IX with an ^111In-labeled dual-motif inhibitor” (Oncotarget, 2015).
Several values for one entry are separate records, joined by “and”; a condition that tells them apart may be missing. Equal entries are not always repeated. Entries after “also recorded” stand apart in the source; their conditions may differ.

Legend:
[1] = tested on: CAIX-expressing SK-RC-52 tumors; test: SPECT/CT imaging of mice with SK-RC-52 tumors; format: in vivo; conditions: 14.8 MBq via tail vein
Experimental: Mice harboring subcutaneous SK-RC-52 tumors with the lower left flank were injected with 14.8 MBq (400 μCi) of [^111In]XYIMSR-01 in 250 μL of PBS (pH = 7.0) intravenously (tail vein). Anesthesia was then induced with 3% isofluorane and maintained at 2% isoflurane. Physiologic temperature was maintained with an external light source while the mouse was on the gantry. Imaging employed a CT-equipped Gamma Medica-Ideas SPECT scanner (Northridge, CA). SPECT data were acquired in 64 projections at 65 s per projection using medium energy pinhole collimators. A CT scan was performed in 512 projections at the end of each SPECT scan for anatomic co-registration. CT and SPECT scans were performed at 1, 4, 8, 24, and 48 h post-injection of [^111In]XYIMSR-01. Imaging data sets were reconstructed using the manufacturer's software. Display of images utilized Amide software (Dice Holdings, Inc. NY).

SK-RC-52 xenografts = test: Biodistribution in mice bearing SK-RC-52 xenografts; format: in vivo; conditions: n = 5; for Biodistribution: Tumor: SK-RC-52 tumor
Experimental: Mice bearing SK-RC-52 xenografts within the lower left flank were injected intravenously with 740 kBq (20 μCi) of [^111In]XYIMSR-01 in 200 μL of PBS. For in vivo competition (binding specificity) studies, tumor-bearing mice were injected with 740 kBq (20 μCi) of [^111In]XYIMSR-01 and 200 nmole of 1 in 200 μL of PBS concurrently. At 1 h, 4 h, 8 h, 24 h and 48 h post-injection, mice were sacrificed by cervical dislocation and the blood was immediately collected by cardiac puncture. Heart, lungs, pancreas, spleen, fat, brain, muscle, small intestines, liver, stomach, kidney, urinary bladder, and tumor were collected. Each organ was weighed and the tissue radioactivity was measured with an automated gamma counter (1282 Compugamma CS, Pharmacia/LKBNuclear, Inc., Mt. Waverly, Vic. Australia). The percentage of injected dose per gram of tissue (% ID/g) was calculated by comparison with samples of a standard dilution of the initial dose. All measurements were corrected for radioactive decay.
Data were expressed as mean ± standard deviation (SD). Prism software (GraphPAD, San Diego, California) was used to determine statistical significance. Statistical significance was calculated using a paired t test. P-values < 0.0001 were considered significant.

[2] = 24 h + Block (co-injected 200 nmole of 1)

CC(CCC(=O)N[C@@H](CC(=O)N[C@@H](CC(=O)N[C@@H](CCCCn1cc(CCCC(=O)Nc2nnc(S(N)(=O)=O)s2)nn1)C(=O)NCCOCCOCCNC(=O)CN1CCN(CC(=O)[O-])CCN(CC(=O)[O-])CCN(CC(=O)[O-])CC1)C(=O)O)C(=O)O)(c1ccc(O)cc1)c1ccc(O)cc1.[111In+3] [[^111In]XYIMSR-01]
retention of radioactivity seen by SPECT/CT at late time points (in words) ([1]; 24-48 h post-injection): nearly all of the radioactivity in the kidneys and other organs had been eliminated, with tumor still retaining significant amounts of radiotracer; also recorded: Retention of radioactivity was exclusively observed in tumors by 48 h | tumor uptake seen by SPECT/CT (in words) ([1]; two mice): radiotracer uptake was observed within the tumors at 1 h post-injection; also recorded: radiotracer uptake in tumor as early as 1 h post-injection | Biodistribution: Tumor (SK-RC-52 xenografts; 1 h post-injection, i.v.): 26 %ID/g and 26.01 ± 5.74 %ID/g | Biodistribution: Bladder (SK-RC-52 xenografts; 1 h post-injection, i.v.): 4.90 ± 4.96 %ID/g | Biodistribution: Blood (SK-RC-52 xenografts; 1 h post-injection, i.v.): 1.34 ± 0.17 %ID/g | Biodistribution: Brain (SK-RC-52 xenografts; 1 h post-injection, i.v.): 1.23 ± 1.10 %ID/g | Biodistribution: Fat (SK-RC-52 xenografts; 1 h post-injection, i.v.): 1.03 ± 0.24 %ID/g | Biodistribution: Heart (SK-RC-52 xenografts; 1 h post-injection, i.v.): 5.98 ± 0.53 %ID/g | Biodistribution: Kidney (kid) (SK-RC-52 xenografts; 1 h post-injection, i.v.): 71.26 ± 8.74 %ID/g | Biodistribution: Liver (SK-RC-52 xenografts; 1 h post-injection, i.v.): 8.36 ± 0.73 %ID/g | Biodistribution: Lung (SK-RC-52 xenografts; 1 h post-injection, i.v.): 45.85 ± 19.89 %ID/g | Biodistribution: Muscle (mm) (SK-RC-52 xenografts; 1 h post-injection, i.v.): 2.34 ± 2.19 %ID/g | Biodistribution: Pancreas (SK-RC-52 xenografts; 1 h post-injection, i.v.): 3.81 ± 0.72 %ID/g | Biodistribution: Sm. intestine (SK-RC-52 xenografts; 1 h post-injection, i.v.): 9.37 ± 1.26 %ID/g | Biodistribution: Spleen (SK-RC-52 xenografts; 1 h post-injection, i.v.): 0.52 ± 0.04 %ID/g | Biodistribution: Stomach (SK-RC-52 xenografts; 1 h post-injection, i.v.): 16.71 ± 2.46 %ID/g | Tumor/blood ratio (SK-RC-52 xenografts; 1 h post-injection): 19.7 and 19.7 ± 4.8 | Tumor/kid (kidney) ratio (SK-RC-52 xenografts; 1 h post-injection): 0.36 ± 0.06 | Tumor/mm (muscle) ratio (SK-RC-52 xenografts; 1 h post-injection): 12.7 and 12.7 ± 5.8 | Biodistribution: Tumor (SK-RC-52 xenografts; 4 h post-injection, i.v.): 20.83 ± 6.25 %ID/g | Biodistribution: Bladder (SK-RC-52 xenografts; 4 h post-injection, i.v.): 2.68 ± 1.89 %ID/g | Biodistribution: Blood (SK-RC-52 xenografts; 4 h post-injection, i.v.): 0.65 ± 0.06 %ID/g | Biodistribution: Brain (SK-RC-52 xenografts; 4 h post-injection, i.v.): 0.45 ± 0.06 %ID/g | Biodistribution: Fat (SK-RC-52 xenografts; 4 h post-injection, i.v.): 0.42 ± 0.22 %ID/g | Biodistribution: Heart (SK-RC-52 xenografts; 4 h post-injection, i.v.): 2.91 ± 0.45 %ID/g | Biodistribution: Kidney (kid) (SK-RC-52 xenografts; 4 h post-injection, i.v.): 41.52 ± 6.07 %ID/g | Biodistribution: Liver (SK-RC-52 xenografts; 4 h post-injection, i.v.): 4.00 ± 0.58 %ID/g | Biodistribution: Lung (SK-RC-52 xenografts; 4 h post-injection, i.v.): 17.85 ± 3.55 %ID/g | Biodistribution: Muscle (mm) (SK-RC-52 xenografts; 4 h post-injection, i.v.): 1.01 ± 0.28 %ID/g | Biodistribution: Pancreas (SK-RC-52 xenografts; 4 h post-injection, i.v.): 1.54 ± 0.40 %ID/g | Biodistribution: Sm. intestine (SK-RC-52 xenografts; 4 h post-injection, i.v.): 4.27 ± 0.69 %ID/g | Biodistribution: Spleen (SK-RC-52 xenografts; 4 h post-injection, i.v.): 0.51 ± 0.08 %ID/g | Biodistribution: Stomach (SK-RC-52 xenografts; 4 h post-injection, i.v.): 7.91 ± 1.28 %ID/g | Tumor/blood ratio (SK-RC-52 xenografts; 4 h post-injection): 31.9 ± 9.4 | Tumor/kid (kidney) ratio (SK-RC-52 xenografts; 4 h post-injection): 0.50 ± 0.15 | Tumor/mm (muscle) ratio (SK-RC-52 xenografts; 4 h post-injection): 21.4 ± 7.2 | Biodistribution: Tumor (SK-RC-52 xenografts; 8 h post-injection, i.v.): 34.00 ± 15.16 %ID/g | Biodistribution: Bladder (SK-RC-52 xenografts; 8 h post-injection, i.v.): 2.28 ± 0.51 %ID/g | Biodistribution: Blood (SK-RC-52 xenografts; 8 h post-injection, i.v.): 0.48 ± 0.02 %ID/g | Biodistribution: Brain (SK-RC-52 xenografts; 8 h post-injection, i.v.): 0.59 ± 0.09 %ID/g | Biodistribution: Fat (SK-RC-52 xenografts; 8 h post-injection, i.v.): 0.45 ± 0.08 %ID/g | Biodistribution: Heart (SK-RC-52 xenografts; 8 h post-injection, i.v.): 2.61 ± 0.35 %ID/g | Biodistribution: Kidney (kid) (SK-RC-52 xenografts; 8 h post-injection, i.v.): 28.79 ± 21.35 %ID/g | Biodistribution: Liver (SK-RC-52 xenografts; 8 h post-injection, i.v.): 3.65 ± 0.65 %ID/g | Biodistribution: Lung (SK-RC-52 xenografts; 8 h post-injection, i.v.): 17.39 ± 8.99 %ID/g | Biodistribution: Muscle (mm) (SK-RC-52 xenografts; 8 h post-injection, i.v.): 1.09 ± 0.15 %ID/g | Biodistribution: Pancreas (SK-RC-52 xenografts; 8 h post-injection, i.v.): 1.61 ± 0.28 %ID/g | Biodistribution: Sm. intestine (SK-RC-52 xenografts; 8 h post-injection, i.v.): 4.31 ± 0.67 %ID/g | Biodistribution: Spleen (SK-RC-52 xenografts; 8 h post-injection, i.v.): 0.64 ± 0.07 %ID/g | Biodistribution: Stomach (SK-RC-52 xenografts; 8 h post-injection, i.v.): 8.74 ± 1.26 %ID/g | Tumor/blood ratio (SK-RC-52 xenografts; 8 h post-injection): 77.0 ± 32.5 | Tumor/kid (kidney) ratio (SK-RC-52 xenografts; 8 h post-injection): 3.1 ± 3.1 | Tumor/mm (muscle) ratio (SK-RC-52 xenografts; 8 h post-injection): 34.2 ± 16.0 | Biodistribution: Tumor (SK-RC-52 xenografts; [2]): 1 %ID/g and 1.41 ± 0.20 %ID/g | Biodistribution: Bladder (SK-RC-52 xenografts; [2]): 0.20 ± 0.07 %ID/g | Biodistribution: Blood (SK-RC-52 xenografts; [2]): 0.03 ± 0.00 %ID/g | Biodistribution: Brain (SK-RC-52 xenografts; [2]): 0.03 ± 0.00 %ID/g | Biodistribution: Fat (SK-RC-52 xenografts; [2]): 0.02 ± 0.01 %ID/g | Biodistribution: Heart (SK-RC-52 xenografts; [2]): 0.04 ± 0.01 %ID/g | Biodistribution: Kidney (kid) (SK-RC-52 xenografts; [2]): 0.68 ± 0.14 %ID/g | Biodistribution: Liver (SK-RC-52 xenografts; [2]): 0.10 ± 0.02 %ID/g | Biodistribution: Lung (SK-RC-52 xenografts; [2]): 0.12 ± 0.02 %ID/g | Biodistribution: Muscle (mm) (SK-RC-52 xenografts; [2]): 0.02 ± 0.00 %ID/g | Biodistribution: Pancreas (SK-RC-52 xenografts; [2]): 0.03 ± 0.00 %ID/g | Biodistribution: Sm. intestine (SK-RC-52 xenografts; [2]): 0.08 ± 0.01 %ID/g | Biodistribution: Spleen (SK-RC-52 xenografts; [2]): 0.08 ± 0.01 %ID/g | Biodistribution: Stomach (SK-RC-52 xenografts; [2]): 0.14 ± 0.02 %ID/g
